Experimental findings from patent US8975264B2, “Compound acting as a cannabinoid receptor-1 inhibitor” (Amorepacific Corporation, priority 2010, dated 2015) are described below.

In this test the target is human CB1 (cannabinoid receptor 1) (Homo sapiens, UniProt P21554). Nature of the test: CB1 receptor inhibition effect: calcium ion influx assay (Fluo-4 NW) in Chem-1 cells after 1 μM R-(+)-WIN55212-2. Type of test: cell-based. The settings on record: calcium ion influx in Chem-1 cells expressing human CB1, 1 μM R-(+)-WIN55212-2. An outline of the steps:
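Chem-1 cells stably expressing human CB1 were exposed to compound (0.5% DMSO) for 10 minutes in HBSS/HEPES/probenecid, then stimulated with 1 μM R-(+)-WIN55212-2. Fluo-4 calcium flux was recorded for 80 s. Percent inhibition was calculated from max−min RFU relative to agonist-only and blank wells.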

Sequence of human CB1 (cannabinoid receptor 1) (P21554 whole entry): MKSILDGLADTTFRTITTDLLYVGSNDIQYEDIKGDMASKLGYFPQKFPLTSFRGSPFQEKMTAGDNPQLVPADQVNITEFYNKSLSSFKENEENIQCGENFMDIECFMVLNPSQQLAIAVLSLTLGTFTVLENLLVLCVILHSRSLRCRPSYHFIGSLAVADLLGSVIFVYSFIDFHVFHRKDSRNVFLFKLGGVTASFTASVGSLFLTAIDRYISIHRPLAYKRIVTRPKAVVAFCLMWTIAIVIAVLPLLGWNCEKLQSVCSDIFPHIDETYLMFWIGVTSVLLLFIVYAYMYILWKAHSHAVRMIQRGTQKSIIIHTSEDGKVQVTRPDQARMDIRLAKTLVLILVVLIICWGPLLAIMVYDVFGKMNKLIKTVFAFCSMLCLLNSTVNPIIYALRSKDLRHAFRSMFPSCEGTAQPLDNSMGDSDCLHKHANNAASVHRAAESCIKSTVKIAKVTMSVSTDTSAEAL

For `CCCOc1ccc(-c2c(C)nn3c(-c4ccc(F)cc4)cc(N4CCC[C@H]4CO)nc23)cc1F` [Example 100], the IC50 came to 310 nM.
In the case of `Cc1nn2c(-c3ccccc3)cc(N3CCC[C@H]3CO)nc2c1-c1ccccc1` [Example 195], the IC50 turned out to be 780 nM.
The same measure for `COCc1nn2c(-c3ccc(F)cc3)cc(N(C)CCO)nc2c1-c1ccc(Cl)cc1` [Example 260]: 7 nM.
Turning to `CCOCc1nn2c(-c3cccc(C)c3)cc(N3CCC[C@H]3CO)nc2c1-c1ccc(OC)cc1` [Example 220], the IC50 was found to be 30 nM.
The same measure for `COc1ccc(-c2c(C)nn3c(-c4ccc(F)cc4)cc(N4CCC[C@H]4CO)nc23)cc1` [Example 64, (S)-(1-(3-(4-methoxyphenyl)-7-(4-fluorophenyl)-2-methylpyrazolo[1,5-a]pyrimidin-5-yl)pyrrolidin-2-yl)methanol]: 170 nM; for `Cc1nn2c(-c3cccc(C(F)(F)F)c3)cc(N3CCC[C@H]3CO)nc2c1-c1ccc(F)cc1F` [Example 135]: 120 nM.
As to `CCOCc1nn2c(-c3cccc(Cl)c3)cc(N3CCC[C@H]3CO)nc2c1-c1ccc2c(c1)OCO2` [Example 217], the 50% inhibitory concentration (IC50) was 150 nM.
The same measure for `COCc1nn2c(-c3cccc(F)c3)cc(N3CCC[C@H]3CO)nc2c1-c1ccc(Cl)cc1` [Example 232]: 4 nM.
The same measure for `Cc1ccc(-c2c(C)nn3c(-c4cccc(Cl)c4)cc(N4CCC[C@H]4CO)nc23)cc1` [Example 170]: 160 nM; for `CCOc1ccc(-c2c(C)nn3c(-c4cccc(OC)c4)cc(N4CCC[C@H]4CO)nc23)cc1` [Example 51]: 250 nM; for `Cc1ccc(-c2cnn3c(-c4cc(F)cc(F)c4)cc(N4CCC[C@H]4CO)nc23)cc1` [Example 273]: 230 nM.
The same measure for `CCOCc1nn2c(-c3cccc(F)c3)cc(N3CCC[C@H]3CO)nc2c1-c1ccc(OC)cc1` [Example 210]: 170 nM; for `Cc1ccc(-c2cnn3c(-c4ccc(F)cc4)cc(N4CCC[C@H]4CO)nc23)cc1` [Example 269, (S)-(1-(3-(4-methylphenyl)-7-(4-fluorophenyl)-pyrazolo[1,5-a]pyrimidin-5-yl)pyrrolidin-2-yl)methanol]: 450 nM; for `CCOCc1nn2c(-c3ccc(F)cc3)cc(NCCO)nc2c1-c1ccc(C)cc1` [Example 263, 2-[2-ethoxymethyl-7-(4-fluorophenyl)-3-(4-methylphenyl)-pyrazolo[1,5-a]pyrimidin-5-yl-amino]ethanol]: 90 nM.
For `CCOc1ccc(-c2c(C)nn3c(-c4ccccc4)cc(N4CCC[C@H]4CO)nc23)cc1` [Example 47, (S)-(1-(3-(4-ethoxyphenyl)-7-phenyl-2-methylpyrazolo[1,5-a]pyrimidin-5-yl)pyrrolidin-2-yl)methanol], the IC50 came out at 130 nM.
Consider `CCOCc1nn2c(-c3cccc(C(F)(F)F)c3)cc(N(C)CCO)nc2c1-c1ccc2c(c1)OCO2` [Example 253], for which the IC50 came out at 190 nM.
On to `COCc1nn2c(-c3cccc(C)c3)cc(N3CCC[C@H]3CO)nc2c1-c1ccc(OC)cc1` [Example 227], for which the IC50 came to 48 nM.
The same measure for `COc1ccc(-c2c(C)nn3c(-c4cccc(C(F)(F)F)c4)cc(N4CCC[C@H]4CO)nc23)cc1` [Example 123]: 76 nM; for `CCOCc1nn2c(-c3cccc(OC)c3)cc(NCCO)nc2c1-c1ccc2c(c1)OCO2` [Example 268]: 300 nM.
Consider `COc1ccc(-c2c(C)nn3c(-c4cccc(OC)c4)cc(N4CCC[C@H]4CO)nc23)cc1` [Example 41], for which the IC50 is 260 nM.
The same measure for `COc1ccc(-c2c(C)nn3c(-c4ccc(OC)cc4)cc(N4CCC[C@H]4CO)nc23)cc1` [Example 40]: 350 nM; for `Cc1ccc(-c2c(C)nn3c(-c4cccc(Cl)c4)cc(N4CCC[C@H]4CO)nc23)cc1F` [Example 176]: 270 nM.
The same measure for `CCCOc1ccc(-c2c(C)nn3c(-c4cccc(F)c4)cc(N4CCC[C@H]4CO)nc23)cc1` [Example 119]: 450 nM.
The same measure for `Cc1nn2c(-c3ccccc3)cc(N3CCC[C@H]3CO)nc2c1-c1ccc2c(c1)OCO2` [Example 56, (S)-(1-(3-(3,4-methylenedioxyphenyl)-7-(phenyl)-2-methylpyrazolo[1,5-a]pyrimidin-5-yl)pyrrolidin-2-yl)methanol]: 90 nM.
For the compound `Cc1cccc(-c2cc(N3CCC[C@H]3CO)nc3c(-c4ccc(F)cc4)c(C)nn23)c1` [Example 167], the IC50 was 250 nM.
`COCc1nn2c(-c3ccc(F)cc3)cc(N3CCC[C@H]3CO)nc2c1-c1ccc(Cl)cc1` [Example 231]: the half-inhibitory concentration (IC50) is 7 nM.
`COCc1nn2c(-c3cccc(C)c3)cc(N3CCC[C@H]3CO)nc2c1-c1ccc(Cl)cc1` [Example 234]: the IC50 came to 15 nM.
The same measure for `COCc1nn2c(-c3cccc(C#N)c3)cc(N3CCC[C@H]3CO)nc2c1-c1ccc(OC)cc1` [Example 228]: 22 nM; for `Cc1nn2c(-c3ccc(F)cc3)cc(N3CCC[C@H]3CO)nc2c1-c1ccc(Cl)c(Cl)c1` [Example 96]: 310 nM; for `Cc1nn2c(-c3ccc(F)cc3)cc(N3CCC[C@H]3CO)nc2c1-c1ccccc1F` [Example 87]: 430 nM.
In the case of `Cc1nn2c(-c3ccccc3F)cc(N3CCC[C@H]3CO)nc2c1-c1ccc2c(c1)OCO2` [Example 57], the IC50 is 240 nM.
The same measure for `COCc1nn2c(-c3cccc(F)c3)cc(N(C)CCO)nc2c1-c1ccc(Cl)cc1` [Example 261]: 9 nM.
The same measure for `Cc1nn2c(-c3ccc(F)cc3F)cc(N3CCC[C@H]3CO)nc2c1-c1ccc(Cl)cc1` [Example 22]: 110 nM; for `Cc1ccc(-c2c(C)nn3c(-c4cccc(C(F)(F)F)c4)cc(N4CCC[C@H]4CO)nc23)cc1F` [Example 137]: 90 nM.
`Cc1ccc(-c2c(C)nn3c(-c4ccccc4F)cc(N4CCC[C@H]4CO)nc23)cc1` [Example 33]: the IC50 worked out at 82 nM.
For the compound `Cc1nn2c(-c3ccc(F)cc3)cc(N3CCC[C@H]3CO)nc2c1-c1ccc(F)cc1F` [Example 77], the IC50 was determined as 350 nM.
With `Cc1nn2c(-c3cccc(C(F)(F)F)c3)cc(N3CCC[C@H]3CO)nc2c1-c1ccc2c(c1)OCO2` [Example 125], the IC50 came to 90 nM.
The same measure for `COCc1nn2c(-c3cccc(C(F)(F)F)c3)cc(N(C)CCO)nc2c1-c1ccc(OC)cc1` [Example 257]: 14 nM; for `COc1ccc(-c2c(C)nn3c(-c4ccc(F)c(F)c4)cc(N4CCC[C@H]4CO)nc23)cc1F` [Example 187]: 390 nM.
On to `CCCCc1nn2c(-c3cccc(C(F)(F)F)c3)cc(N3CCC[C@H]3CO)nc2c1-c1ccc(C)cc1` [Example 288], for which the IC50 was found to be 8 nM.
Consider `CCc1ccc(-c2c(C)nn3c(-c4ccc(F)cc4)cc(N4CCC[C@H]4CO)nc23)cc1` [Example 70], for which the IC50 was determined as 230 nM.
The same measure for `C=Cc1ccc(-c2c(C)nn3c(-c4cccc(F)c4)cc(N4CCC[C@H]4CO)nc23)cc1` [Example 117]: 240 nM; for `Cc1cccc(-c2cc(N3CCC[C@H]3CO)nc3c(-c4ccc(OC(F)(F)F)cc4)c(C)nn23)c1` [Example 168]: 450 nM.
The same measure for `CCOCc1nn2c(-c3cccc(OC)c3)cc(N3CCC[C@H]3CO)nc2c1-c1ccc(C)cc1` [Example 203]: 30 nM.
The same measure for `COc1ccc(-c2c(C)nn3c(-c4cccc(Cl)c4)cc(N4CCC[C@H]4CO)nc23)cc1` [Example 169, (S)-(1-(3-(4-methoxyphenyl)-7-(3-chlorophenyl)-2-methylpyrazolo[1,5-a]pyrimidin-5-yl)pyrrolidin-2-yl)methanol]: 33 nM; for `Cc1nn2c(-c3cc(F)cc(F)c3)cc(N3CCC[C@H]3CO)nc2c1-c1ccc2c(c1)OCO2` [Example 62, (S)-(1-(3-(3,4-methylenedioxyphenyl)-7-(3,5-difluorophenyl)-2-methylpyrazolo[1,5-a]pyrimidin-5-yl)pyrrolidin-2-yl)methanol]: 70 nM.
With `COc1cccc(-c2cc(N3CCC[C@H]3CO)nc3c(-c4ccc(F)cc4F)c(C)nn23)c1` [Example 190], the IC50 amounted to 180 nM.
The same measure for `Cc1ccc(-c2c(C)nn3c(-c4ccccc4)cc(N4CCC[C@H]4CO)nc23)cc1` [Example 28]: 120 nM.
As for `COCc1nn2c(-c3cccc(C(F)(F)F)c3)cc(N3CCC[C@H]3CO)nc2c1-c1ccc(Cl)cc1` [Example 233], the IC50 came out at 6 nM.
The same measure for `CCOc1ccc(-c2c(C)nn3c(-c4cc(F)cc(F)c4)cc(N4CCC[C@H]4CO)nc23)cc1` [Example 55]: 200 nM.
